This note sets out measurements from publication PMC2949076 (Journal of clinical immunology, 2010).

Test [1] concerns CD8+ T cells in PBMC. The class given is cell-based, human.
The test system of test [2] is CD8+ T cells in PBMC. In words: Granzyme B and perforin detection by flow cytometry. The class given is cell-based, human. A general note: In flow cytometry, cells or beads pass a laser one at a time.

Several values for one entry are separate records, joined by “and”; a condition that tells them apart may be missing. Equal entries are not always repeated.

As to staphylococcal enterotoxin B [SEB], in the test with CD8+ T cells in PBMC [1], the “CD107a mobilization, monofunctional vs polyfunctional cells” value is listed as “increases were observed” and the “IFN-γ-level change in polyfunctional cells” value is recorded as “increases in IFN-γ observed”. Also, in the test on CD8+ T cells in PBMC [2], the “CD8+ T cells lacking granule proteins” value was 58% and 44.5–70.9%.
